From patent EP0640600A1, “Heterocyclylbenzoheterocycles” (BAYER AG, priority 1993, dated 1995)

Experiments:
Unkräuter = assay: Post-emergence test, herbicidal action on weeds; assay type: in vivo; conditions: test plants 5 - 15 cm high sprayed, damage rated after three weeks vs untreated control, application rate not given
Source text: (§1) Lösungsmittel: 5 Gewichtsteile Aceton Emulgator: 1 Gewichtsteil Alkylarylpolyglykolether Zur Herstellung einer zweckmäßigen Wirkstoffzubereitung vermischt man 1 Gewichtsteil Wirkstoff mit der angegebenen Menge Lösungsmittel, gibt die angegebene Menge Emulgator zu und verdünnt das Konzentrat mit Wasser auf die gewünschte Konzentration.
(§2) Mit der Wirkstoffzubereitung spritzt man Testpflanzen, welche eine Höhe von 5 - 15 cm haben so, daß die jeweils gewünschten Wirkstoffmengen pro Flächeneinheit ausgebracht werden. Nach drei Wochen wird der Schädigungsgrad der Pflanzen bonitiert in % Schädigung im Vergleich zur Entwicklung der unbehandelten Kontrolle.

[1] = system: Kulturpflanzen, wie z.B. Weizen und Soja; conditions: in vivo
Source text: as §1, §2

## CCCN1C(=O)COc2cc(F)c(-n3c(=O)nc(OCC)n(C)c3=O)cc21 [Beispiel 2, 3-(7-Fluor-3-oxo-4-propyl-1,4-benzoxazin-6-yl)-6-ethoxy-1-methyl-(1H,3H)-1,3,5-triazin-2,4-dion]
Unkräuter
  Wirkung gegen Unkräuter: starke Wirkung
[1]
  Verträglichkeit gegenüber Kulturpflanzen, wie z.B. Weizen und Soja: teilweise guter Verträglichkeit
